Reference: patent EP0188538B1, “TRANSDERMAL DELIVERY OF AZATADINE” (priority 1984, dated 1986)
Where a name gives a salt, the structure may show the parent alone.

system: rabbits with intact skin; test: not given; settings: in vivo

| SMILES | Rabbit Dermal Irritation |
| --- | --- |
| CN(C)CCOC(c1ccc(Cl)cc1)c1ccccn1 (stereo not shown) [Carbinoxamine maleate] | (+) |
| CN(C)CC[C@@H](c1ccc(Br)cc1)c1ccccn1 [Dexbrompheniramine (10%), Dexbrompheniramine] | (+) |
| CC(C1=C(CCN(C)C)Cc2ccccc21)c1ccccn1 (stereo not shown) [Dimethindine maleate] | (+) |
| CN1CCC(OC(c2ccccc2)c2ccccc2)CC1 [Diphenylpyraline HCl] | (+) |
| CN(C)CCOC(C)(c1ccccc1)c1ccccn1 (stereo not shown) [Doxylamine succinate] | (+) |
| CC(CN1c2ccccc2Sc2ccccc21)N(C)C (stereo not shown) [Promethazine HCl] | (+) |
| Cc1ccc(/C(=C\CN2CCCC2)c2ccccn2)cc1 [Triprolidine HCl] | (+) |

same assay, conditions: rabbit, in vivo

| SMILES | dermal irritation and/or sensitization |
| --- | --- |
| CN1CCC(=C2c3ccccc3CCc3cccnc32)CC1 [Azatadine, 6,11-diydro-11-(1-methyl-4-piperidylidene)-5H-benzo[5,6]cyclohepta[1,2-b]pyridine] | no dermal irritation and/or sensitization |

system: not given; test: not given; settings: pH 7.4

| SMILES | In Vitro Dermal Penetration |
| --- | --- |
| CN1CCC(=C2c3ccccc3CCc3cccnc32)CC1 [Azatadine, 6,11-diydro-11-(1-methyl-4-piperidylidene)-5H-benzo[5,6]cyclohepta[1,2-b]pyridine] | (+) |
| CN(C)CCC(c1ccc(Cl)cc1)c1ccccn1 (stereo not shown) [Chlorpheniramine base (patch), Chlorpheniramine] | (+) |

system: rabbits with intact skin; test: Screening of antihistamines for dermal irritation (24/72 hour screen, Draize grading); settings: 24/72 hour dermal irritation screen in rabbits with intact skin; formulation strength as given in the label
Excerpt: The irritation results are reported as either irritating (+) or non-irritating (-), and the penetration results are reported as either good (+) or poor (-). […] Eight young adult New Zealand white rabbits were assigned to two groups. The rabbits were housed in stainless steel cages and maintained under standard laboratory conditions. Each cage was identified with a color coded label indicating the test substance, rabbit number, sex, and study number. Food and water were supplied ad libitum. On the day of dosing, the back of each rabbit was clipped free of hair. […] To prevent removal, the chambers were covered with an orthopedic stockinette and secured by a canvas coat.

| SMILES | Rabbit Dermal Irritation |
| --- | --- |
| CN(C)CCC(c1ccc(Cl)cc1)c1ccccn1 (stereo not shown) [Chlorpheniramine base (patch), Chlorpheniramine] | (+) |
| CN1CCC(=C2c3ccccc3C=Cc3ccccc32)CC1 [Cyprhoheptadine HCl] | (+) |
| CN(C)CC[C@@H](c1ccc(Cl)cc1)c1ccccn1 [Dexchlorpheniramine base, Dexchlorpheniramine] | (+) |
